Experimental data from patent publication US20260007133A1, “HERBICIDAL COMPOSITION COMPRISING AZINE COMPOUNDS” (BASF SE, priority 2022, published 2026).
Read-outs that look alike come from different tables or passages of the source.

Columns and labels:
Format in all cases: in vivo
Avena fatua = test: Greenhouse pre-emergence (PRE) herbicidal test on AVEFA; details: use rate 2 gai/ha
In short: (§1)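 Herbicidal effect is scored from 0 (no damage) to 100 (no emergence or above-ground parts destroyed), 20 days after treatment. Application is pre-emergent onto sown pots, with components given as a 5% by weight emulsion concentrate in the spray liquor.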

Euphorbia heterophylla = test: Greenhouse post-emergence (POST) herbicidal test on EPHHL; details: Euphorbia heterophylla, post-emergence; for inhibition at 2 g/ha: use rate 2 gai/ha; for inhibition at 4 g/ha: use rate 4 gai/ha; for inhibition at 8 g/ha: use rate 8 gai/ha
In short: (§2)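 For this test, compounds formulated as a 5% by weight emulsion concentrate were diluted into spray liquor and applied post-emergence. Species were kept at 10-25° C or 20-35° C and injury was scored at 20 DAT on a 0–100 scale.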

Ambrosia artemisiifolia = test: Greenhouse pre-emergence (PRE) herbicidal test on AMBEL; details: Ambrosia artemisiifolia, pre-emergence
Galium aparine = test: Greenhouse pre-emergence (PRE) herbicidal test on GALAP; details: Galium aparine, pre-emergence, PRE, GALAP
In short: as §1

Echinochloa crus-galli = test: Greenhouse pre-emergence (PRE) herbicidal test on ECHCG; details: Echinochloa crus-galli, pre-emergence, PRE
Lolium multiflorum = test: Greenhouse pre-emergence (PRE) herbicidal test on LOLMU; details: Lolium multiflorum, pre-emergence; for pest or weed control at 2 g/ha: I-3 solo 2 gai/ha
In short: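 Pre-emergence greenhouse assay: sown loamy-sand pots (humus approx. 3.0%) were kept under transparent hoods until rooting, then grown at species-appropriate 10-25° C or 20-35° C. Response ratings of 0 (no damage) to 100 (no plants emerged) were recorded 20 days after application.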

Abutilon theophrasti = test: Greenhouse post-emergence (POST) herbicidal test on ABUTH; details: Abutilon theophrasti, post-emergence; for pest or weed control at 2 g/ha: I-3 solo 2 gai/ha
In short: as §2

Geranium pusillum = test: Greenhouse pre-emergence (PRE) herbicidal test on GERPU; details: Geranium pusillum, pre-emergence, GERPU PRE, use rate 2 gai/ha
In short: as §1

[1] = 480 h, POST, EPHHL, 20 DAT, read-out: solo application % activity

COc1c(Cl)cc(F)c(F)c1Nc1nc(N)nc(C(C)(C)F)n1 [Compound I-3]
inhibition at 2 g/ha (Avena fatua): 20%
inhibition at 2 g/ha (Euphorbia heterophylla; 480 h, EPHHL POST, 20 DAT, read-out: % activity): 25%
pest or weed control at 8 g/ha (Euphorbia heterophylla; 480 h, POST, 8 gai/ha, 20 DAT): 60%
inhibition at 2 g/ha (Euphorbia heterophylla; [1]): 20%
inhibition at 4 g/ha (Euphorbia heterophylla; 480 h, POST, EPHHL, 20 DAT): 65%
inhibition at 8 g/ha (Euphorbia heterophylla; [1]): 50%
inhibition at 8 g/ha (Euphorbia heterophylla; EPHHL POST, read-out: % activity): 60%
inhibition at 4 g/ha (Euphorbia heterophylla; POST, EPHHL): 60%
inhibition at 2 g/ha (Ambrosia artemisiifolia; 240 h, PRE, use rate 2 gai/ha, 10 DAT, read-out: % activity): 10%
inhibition at 8 g/ha (Ambrosia artemisiifolia; 240 h, PRE, use rate 8 gai/ha, 10 DAT, read-out: % activity): 65%
inhibition at 2 g/ha (Ambrosia artemisiifolia; 480 h, AMBEL PRE, 20 DAT, use rate 2 gai/ha, read-out: % activity): 50%
inhibition at 2 g/ha (Ambrosia artemisiifolia; 480 h, PRE, AMBEL, 2 gai/ha, 20 DAT, read-out: % activity solo application): 10%
inhibition at 8 g/ha (Ambrosia artemisiifolia; 480 h, PRE, AMBEL, 8 gai/ha, 20 DAT, read-out: % activity solo application): 45%
inhibition at 2 g/ha (Ambrosia artemisiifolia; 480 h, PRE, AMBEL, use rate 2 gai/ha, 20 DAT, read-out: solo application % activity): 10%
inhibition at 8 g/ha (Ambrosia artemisiifolia; 480 h, PRE, AMBEL, use rate 8 gai/ha, 20 DAT, read-out: solo application % activity): 45%
inhibition at 8 g/ha (Ambrosia artemisiifolia; 480 h, PRE, use rate 8 gai/ha, 20 DAT, read-out: % activity): 90%
inhibition at 4 g/ha (Ambrosia artemisiifolia; PRE, AMBEL, use rate 4 gai/ha): 25%
inhibition at 2 g/ha (Galium aparine; use rate 2 gai/ha): 15%
inhibition at 8 g/ha (Galium aparine; use rate 8 gai/ha): 75%
inhibition at 1 g/ha (Echinochloa crus-galli; 240 h, use rate 1 gai/ha, 10 DAT): 10%
inhibition at 2 g/ha (Echinochloa crus-galli; 240 h, use rate 2 gai/ha, 10 DAT, read-out: % activity): 10%
inhibition at 4 g/ha (Echinochloa crus-galli; 240 h, use rate 4 gai/ha, 10 DAT): 20%
inhibition at 8 g/ha (Echinochloa crus-galli; 240 h, use rate 8 gai/ha, 10 DAT, read-out: % activity): 20%
pest or weed control at 2 g/ha (Echinochloa crus-galli; 432 h, ECHCG, I-3 solo 2 gai/ha, 18 DAT): 25%
inhibition at 2 g/ha (Echinochloa crus-galli; 480 h, ECHCG, 2 gai/ha, 20 DAT, read-out: % activity solo application): 5%
inhibition at 8 g/ha (Echinochloa crus-galli; 480 h, ECHCG, 8 gai/ha, 20 DAT, read-out: % activity solo application): 95%
inhibition at 2 g/ha (Echinochloa crus-galli; 480 h, ECHCG, use rate 2 gai/ha, 20 DAT, read-out: solo application % activity): 5%
inhibition at 8 g/ha (Echinochloa crus-galli; 480 h, ECHCG, use rate 8 gai/ha, 20 DAT, read-out: solo application % activity): 95%
inhibition at 2 g/ha (Lolium multiflorum; 432 h, PRE, LOLMU, 2 gai/ha, 18 DAT, read-out: % activity solo application): 10%
inhibition at 8 g/ha (Lolium multiflorum; 432 h, PRE, LOLMU, 8 gai/ha, 18 DAT, read-out: % activity solo application): 70%
pest or weed control at 2 g/ha (Lolium multiflorum; 432 h, PRE, LOLMU, 18 DAT, read-out: % activity): 10%
pest or weed control at 8 g/ha (Lolium multiflorum; 432 h, PRE, LOLMU, I-3 solo 8 gai/ha, 18 DAT): 70%
inhibition at 8 g/ha (Lolium multiflorum; 480 h, LOLMU PRE, 20 DAT, use rate 8 gai/ha, read-out: % activity): 90%
pest or weed control at 8 g/ha (Lolium multiflorum; 480 h, PRE, 8 gai/ha, 20 DAT): 90%
inhibition at 8 g/ha (Lolium multiflorum; 480 h, PRE, LOLMU, 8 gai/ha, 20 DAT, read-out: % activity solo application): 95%
pest or weed control at 2 g/ha (Lolium multiflorum; 480 h, PRE, LOLMU, 20 DAT, read-out: % activity): 25%
inhibition at 2 g/ha (Lolium multiflorum; 480 h, PRE, LOLMU, use rate 2 gai/ha, 20 DAT, read-out: solo application % activity): 50%
inhibition at 4 g/ha (Lolium multiflorum; 480 h, PRE, LOLMU, use rate 4 gai/ha, 20 DAT): 80%
inhibition at 2 g/ha (Lolium multiflorum; 480 h, PRE, use rate 2 gai/ha, 20 DAT, read-out: % activity): 20%
inhibition at 2 g/ha (Lolium multiflorum; PRE, LOLMU, use rate 2 gai/ha, read-out: % activity): 40%
pest or weed control at 2 g/ha (Abutilon theophrasti; 432 h, POST, ABUTH, 18 DAT): 35%
pest or weed control at 8 g/ha (Abutilon theophrasti; 432 h, POST, ABUTH, I-3 solo 8 gai/ha, 18 DAT): 65%
pest or weed control at 8 g/ha (Abutilon theophrasti; 480 h, POST, 8 gai/ha, 20 DAT): 50%
inhibition at 2 g/ha (Abutilon theophrasti; 480 h, POST, ABUTH, 2 gai/ha, 20 DAT, read-out: % activity solo application): 10%
pest or weed control at 2 g/ha (Abutilon theophrasti; 480 h, POST, ABUTH, 20 DAT): 50%
pest or weed control at 8 g/ha (Abutilon theophrasti; 480 h, POST, ABUTH, I-3 solo 8 gai/ha, 20 DAT): 80%
inhibition at 2 g/ha (Abutilon theophrasti; 480 h, POST, ABUTH, use rate 2 gai/ha, 20 DAT, read-out: solo application % activity): 10%
inhibition at 4 g/ha (Abutilon theophrasti; 480 h, POST, ABUTH, use rate 4 gai/ha, 20 DAT): 10%
inhibition at 16 g/ha (Abutilon theophrasti; 480 h, POST, ABUTH, use rate 16 gai/ha, 20 DAT): 50%
inhibition at 2 g/ha (Abutilon theophrasti; ABUTH POST, use rate 2 gai/ha, read-out: % activity): 20%
inhibition at 8 g/ha (Abutilon theophrasti; ABUTH POST, use rate 8 gai/ha, read-out: % activity): 85%
inhibition at 2 g/ha (Abutilon theophrasti; POST, ABUTH, use rate 2 gai/ha, read-out: % activity): 30%
inhibition at 2 g/ha (Geranium pusillum): 0%
